Patent US20260356803A1, “Nicotinamide derivatives” (Board of Regents, The University of Texas System, priority 2024, published 2026)
Like-named read-outs stand apart in the source and are kept apart here.

How the values were obtained:
Format in all cases: cell-based
[1] = tested on: human MPNST cell line S462; experiment: S462 cell viability (CellTiter-Glo, 72 h)
Text: This similarity, in addition to the scaffold's particular sensitivity to modifications around the pyridinyl ring led us to hypothesize that the activity of compounds 1 and 9 may depend on the concentration of Nam in the media. To test this hypothesis, we analyzed the activity of both compounds in media supplemented with increasing concentrations of Nam. […] Given that Nam inhibited compound activity, we considered Nam concentrations in basal culture conditions (DMEM supplemented with 10% fetal bovine serum or FBS) as compared to physiological levels. Nam levels in human serum are estimated to be in the 4 μM range.^5 In contrast, DMEM alone contains […] of Nam and the concentration in 10% FBS is expected to range between 0.574-1.56 μM.^6 To more closely reflect physiologic levels of Nam, we evaluated the activity of these compounds in cells grown in DMEM lacking Nam (Nam-free DMEM), so that the only exogenous Nam derives from 10% FBS. […] These observations indicate that the potency of these compounds is in the nanomolar range when tested in the presence of physiological levels of Nam.
We thus re-assessed the structure activity relationship of compound 21 analogs in Nam-free DMEM supplemented with or without 100 μM Nam (see appendix below: Synthesis, characterization and activity of micromolar and nanomolar active nicotinamide derivatives). […] Particularly notable, even in Nam-depleted conditions, all active analogs retained the same 3-pyridinyl ring as Nam, reinforcing the relationship between structural resemblance to Nam and compound efficacy.
In 96-well assay plates (Corning #2903), 2,000 cells were plated per well in 100 μL of medium and allowed to adhere overnight. The next day, compounds or Nam suspended in DMSO were dispensed to the assayed wells using a D300e Digital Dispenser (Tecan). All wells were normalized to 0.5% DMSO. 72 hours after incubation at 37 °C in 5% CO2, cell viability was assayed using an ATP-based luminescent viability assay, CellTiter-Glo (Promega #G8462). CellTiter-Glo substrate was mixed 1:1 with phosphate-buffered saline (PBS) supplemented with 1% Triton X-100, and 40 μL of this mixture was added to the assay wells. After the plates were shaken on a microplate shaker for 10 minutes at room temperature, luminescence was recorded using a Synergy 2 Microplate Reader or Cytation 5 plate reader (BioTek). In Prism 9 software (GraphPad), ten-point dose response curves were plotted with baseline-correction to the vehicle control well, and IC50 values were calculated by curve fitting using asymmetric (five parameter), least squares fit.

iHCT116 cells = experiment: Forward genetics resistance selection (IAA-inducible mutagenesis)
Text: Second, we screened for resistance to 9 in iHCT116 cells, a system that uses inducible mutagenesis and forward genetics to find compound-resistant mutations and thus can reveal both loss of function and gain of function alleles that suppress activity. The iHCT116 system is a barcoded cell line in which we temporally control mutagenesis by the addition of indole acetic acid (IAA) mediated degradation of the mismatch repair protein MLH1.^12 MLN4924 is a small molecule toxin that we use as a positive control to verify that IAA treatment leads to increased mutations. By degrading MLH1 and increasing the overall mutation rate, IAA treatment increases the frequency of UBA3 mutations, leading to a higher rate of MLN4924 resistance. […] Having previously established a relationship between either NMNAT1 levels or NAMPT activity and compound resistance, we analyzed the levels of both enzymes in multiple resistant clones that harbored unique barcode sequences. […] To test whether reduced NMNAT1 levels in these clones contributed to resistance, we ectopically expressed NMNAT1 in either the parental cells or a representative resistant clone with low NMNAT1 expression.

IMPDH = experiment: Guanosine co-titration rescue; conditions: guanosine co-titrated
Text: Given that vacor, 3-AP, and compound 21 are all metabolized to toxic, NAD-like derivatives through NAMPT and NMNAT, we hypothesized that their anti-cancer activity may also depend on SARM1. To test this, we compared the toxic effects of vacor, 3-AP, and 9 in either wild type cells or cells in which we used CRISPR to silence SARM1. […] These observations highlight that even though these different scaffolds are toxified through the same mechanism, the resulting metabolites may have different activities. We next co-titrated guanosine, which is known to rescue tiazofurin by bypassing IMPDH in guanylate synthesis, with each of the above small molecules. […] To test this hypothesis, we set up in vitro reactions with different combinations of 9, NAMPT and NMNAT. After incubation, metabolites were extracted, reconstituted in aqueous solution and then co-incubated with an established IMPDH2 enzyme assay.

[2] = [nicotinamide] 0 μM, Nam-free DMEM, read-out: IC50 (μM), [nicotinamide] 0 μM
[3] = [nicotinamide] 33 μM, read-out: IC50 (μM), [nicotinamide] 33 μM
[4] = [nicotinamide] 100 μM, read-out: IC50 (μM), [nicotinamide] 100 μM
[5] = S462, commercial DMEM, highest dose tested 50 μM, read-out: IC50

SMILES | IC50 [1, 2] [µM] | IC50 [1, 3] [µM] | IC50 [1, 4] [µM] | further results
Cc1csc(C(=O)Nc2cccnc2)c1 | 0.302 | > 50 | > 50 | 
O=C(Nc1cccnc1)c1ccccc1 | 0.064 | 16.8 | > 50 | 
O=C(Nc1cccnc1)c1ccccn1 | 0.992 | > 50 | > 50 | 
O=C(Nc1cccnc1)c1ccco1 | 0.022 | > 50 | > 50 | 
O=C(Nc1cccnc1)c1cccnn1 | 18 | > 50 | > 50 | 
O=C(Nc1cccnc1)c1ccoc1 | 0.948 | > 50 | > 50 | 
Cc1ncsc1C(=O)Nc1cccnc1 |  | > 50 | > 50 | 
O=C(Nc1cccnc1)c1ccc[nH]1 | 0.08 | > 50 | > 50 | 
O=C(Nc1cccnc1)c1ccc(Br)s1 | 0.234 | 15.6 | > 50 | 
O=C(Nc1cccnc1)c1ncc[nH]1 | 22.4 | > 50 | > 50 | 
O=C(Nc1cccnc1)c1ccc(Cl)cc1 | 0.921 | > 50 | > 50 | 
O=C(Nc1cccnc1)c1cc2ccccc2s1 | 0.249 | 21.4 | > 50 | 
COc1ccc(C(=O)Nc2cccnc2)cc1 | 0.686 | > 50 | > 50 | 
O=C(Nc1cccnc1)c1nccs1 | 1.88 | > 50 | > 50 | 
O=C(Nc1cccnc1)c1ccc(C(F)(F)F)cc1 | 0.771 | > 50 | > 50 | 
O=C(Nc1cccnc1)c1ncco1 | 19.5 | > 50 | > 50 | 
Cc1ccsc1C(=O)Nc1cccnc1 | 1.08 | > 50 | > 50 | 
N#Cc1ccc(C(=O)Nc2cccnc2)s1 | 0.075 | 14.2 | > 50 | 
Cc1ccc(C(=O)Nc2cccnc2)s1 | 0.184 | > 50 | > 50 | 
O=C(Nc1cccnc1)c1cc2c(s1)CCCC2 | 0.763 | > 50 | > 50 | 
COc1cccc(C(=O)Nc2cccnc2)c1 | 2.36 | > 50 | > 50 | 
O=C(Nc1cncc(F)c1)c1cccs1 |  | > 50 | > 50 | 
Cc1ccccc1C(=O)Nc1cccnc1 | 14.7 | > 50 | > 50 | 

SMILES | IC50 [1, 2] [µM] | IC50 [1, 3] [µM] | IC50 [1, 4] [µM] | further results
N#Cc1cncc(NC(=O)c2cccs2)c1 |  | > 50 | > 50 | 
O=C(Nc1cnc(Cl)c(Cl)c1)c1cccs1 | 8.76 | > 50 | 42.4 | 
O=C(Nc1ccon1)c1cccnc1 | 2.73 | > 50 | > 50 | 
O=C(Nc1ccc(Br)nc1)c1cccs1 | 8.5 | > 50 | > 50 | 
O=C(Nc1ccccc1)c1cccnc1 | 0.024 | 13.1 | > 50 | 
N#Cc1ccc(NC(=O)c2cccs2)cn1 | 2.78 | > 50 | > 50 | 
CCOC(=O)c1ccsc1NC(=O)c1cccnc1 |  | > 50 | > 50 | 
O=C(Nc1cc(-c2ccccc2)cs1)c1cccnc1 | 2.46 |  | 39.6 | 
Cc1sc(NC(=O)c2cccnc2)c(C#N)c1C |  |  | > 50 | 
CCOC(=O)c1ccc(NC(=O)c2cccnc2)s1 | 0.23 |  | > 50 | 
Cc1cc(C#N)c(NC(=O)c2cccnc2)s1 |  |  | > 50 | 
N#Cc1c(NC(=O)c2cccnc2)sc2c1CCC2 | 5.97 |  | 6.1 | 
Cc1cccc(C(=O)Nc2cccnc2)c1 | 35.7 | > 50 | > 50 | 
N#Cc1c(NC(=O)c2cccnc2)sc2c1CCCC2 | 4.74 |  | 4.72 | 
O=C(Nc1nc2cccnc2s1)c1cccnc1 | 23.9 | > 50 | > 50 | 
O=C(Nc1ccccc1)c1cccs1 [Compound 2, N-Phenylthiophene-2-carboxamide] |  |  |  | IC50 [1, 5]: > 50 µM
O=C(Nc1ccccn1)c1cccs1 [Compound 3, N-(Pyridin-2-yl)thiophene-2-carboxamide] |  |  |  | IC50 [1, 5]: > 50 µM
O=C(Nc1ccncc1)c1cccs1 [Compound 4, N-(Pyridin-4-yl)thiophene-2-carboxamide] |  |  |  | IC50 [1, 5]: > 50 µM
NS(=O)(=O)OC[C@@H]1C[C@@H](n2ccc3c(N[C@H]4CCc5ccccc54)ncnc32)C[C@@H]1O [MLN4924, reference compound] |  |  |  | resistant clones (iHCT116 cells; IAA treated (Mut-on)): 33 clones; resistant clones (iHCT116 cells; vehicle (Mut-off)): one
O=C(Nc1cccs1)c1cccnc1 [drawing 72] | 0.006 | 1.2 | > 50 | 
O=C(Nc1nc2ccccc2s1)c1cccnc1 [drawing 105] | 0.623 |  | > 50 | 
O=C(Nc1nc2ccccc2s1)c1cccnc1 [drawing 111] | 36.2 | > 50 | > 50 | 
NC(=O)c1csc([C@@H]2O[C@H](CO)[C@@H](O)[C@H]2O)n1 [tiazofurin, reference compound] |  |  |  | toxicity to S462 ([1]; 10% FBS Nam-free DMEM): toxic to S462; rescue by nicotinamide ([1]; 10% FBS Nam-free DMEM, comparison of vacor, 3-AP, tiazofurin and 9): all compounds except tiazofurin were rescued by nicotinamide; guanosine rescue of toxicity (IMPDH): guanosine rescue
